Literature values as cited in patent US20050136114A1, “Taste masked pharmaceutical compositions comprising bitter drug and pH sensitive polymer” (COUNCIL OF SCIENTIFIC AND INDUSTRIAL RESEARCH, priority 2003, published 2005).

What was measured:
[1] = in presence of Eudragit E
[2] = oral, humans

degradation [1]: significant degradation
bioavailability [2]: 32-50%
Compound: CO/N=C(\C(=O)N[C@@H]1C(=O)N2C(C(=O)OC(C)OC(C)=O)=C(COC(N)=O)CS[C@H]12)c1ccco1 (some centres unmarked) [cefuroxime axetil]
